As a reminder, the Ki is a dissociation constant, usually derived from enzyme kinetics or from competition with a known ligand.

One test concerns the target T1, ecFoID (Escherichia coli, UniProt P24186).
T1 construct: His-tag (vector pHis-TEV); made in house; host or cells: E. coli BL21 (DE3)
Nature of the test: FoID cyclohydrolase (CYH) enzyme assay. Type of test: biochemical, E. coli. As to the method:
(6R,S)-5,10-Methylene-5,6,7,8-tetrahydrofolic acid ((6R,S)-5,10-CH2-THF), calcium salt and (6R,S)-5,10-Methenyl-5,6,7,8-tetrahydrofolic acid ((6R,S)-5,10-CH=THF) chloride were purchased from Schircks Laboratories (Bauma, Switzerland) and were used as substrates for FoID dehydrogenase and cyclohydrolase enzyme assays, respectively. Only the R-isomer, which accounts for 50% of (6R,S)-5,10-CH2-THF and (6R,S)-5,10-CH=THF, respectively, is used by the enzyme. (6R,S)-5,10-CH2-THF was dissolved in N2-spargeled basic buffer (50 mM Tris-HCl (pH 8.0), 100 mM β-mercaptoethanol) as described by Sah and Varshney, 2015a (6R,S)-5,10-CH=THF was first dissolved in DMSO as a 100 mM stock solution.
Because FoID is a bifunctional enzyme, dehydrogenase and cyclohydrolase activities were determined for FoID enzyme kinetics, respectively. The dehydrogenase activity of FoID was assayed for its substrate 5,10-CH2-THF and cofactor NADP+ (in the case of MTHFD2, NAD+ was used as cofactor) based on monitoring the formation of 5,10-CH=THF while the cyclohydrolase activity of FoID was determined for its substrate 5,10-CH=THF by monitoring the hydrolysis of 5,10-CH2-THF. The enzyme kinetics for the dehydrogenase activity of all FoIDs except hsMTHFD1_DC were determined at 30° C. in 50 mM Tris-HCl (pH 7.5), 30 mM β-mercaptoethanol. […]

Another test deals with L-929 mouse fibroblasts. Nature of the test: Cell proliferation assay with mouse fibroblasts (MTT). Type of test: cell-based. Here is the method: L-929 mouse fibroblasts from DSMZ cultivated at 37° C. and 10% CO2 in DME medium (high glucose) supplemented with 10% fetal calf serum. Cell culture reagents came from Life Technologies Inc. (GIBCO BRL). […] of serial dilutions of the test compound were given to […] of suspended cells (50,000/mL) in wells of 96-well plates. After 5 days of incubation growth inhibition (IC50) was determined using an MTT assay (Mosman et al., 1983).

The test system of another test is S. pneumoniae TIGR4Δfhs. The test is described as follows: Planktonic growth of S. pneumoniae fhs deletion mutant. Type of test: cell-based, Streptococcus pneumoniae. To be noted: S. pneumoniae fhs inactivated mutant; 0.25 μg/ml carolacton. Here is the method:
FIG. 4. Carolacton effects on S. pneumoniae TIGR4 and foID deletion, complementation and fhs deletion mutants. (A) Growth inhibition of planktonic cultures of S. pneumoniae TIGR4 wild type, ΔfoID deletion mutant and controls in THBY. Carolacton (caro) (0.25 μg/ml) was added at an optical density of 600 nm (OD600) of 0.15. (B) Planktonic growth of the S. pneumoniae TIGR4 wild type and the TIGR4Δfhs mutant in THBY. Cultures were treated with 0.25 μg/ml carolacton (OD600 0.15).
The Streptococcus mutans and Streptococcus pneumoniae strains used herein are UA159 and TIGR4, respectively. S. pneumoniae TIGR4 was routinely grown on Columbia blood agar plates (BD Biosciences) as described previously (Donner et. al, 2016). Streptococci were grown in Todd-Hewitt-Broth +1% (w/v) yeast extract (THBY, BD Biosciences)) at 37° C. and 5% CO2. The E. coli ToIC strain used in carolacton-resistant mutant development is an antibiotic-sensitive E. coli strain without its outer membrane channel protein ToIC. E. coli DH1OB or DH5α strain was used for gene cloning and E. coli BL21 (DE3) was used for protein expression. The protein expression plasmid pHis-TEV (Liu et al., 2009) was used for cloning and expression of all different foID gene orthologues studied herein.

≈ marks a conversion by molar mass, not a printed value. Where “and” joins values, the source holds several entries; their conditions need not be identical. Equal entries are not always repeated.

Take `CO[C@H](CC(=O)O)[C@@H](C)C(=O)[C@H](C)/C=C(\C)[C@H]1OC(=O)[C@H](O)[C@H](O)/C=C/[C@H](C)CCC[C@@H]1C` [Carolacton, carolacton]: the IC50 on ecFoID came out at 49.8 nM; with L-929 mouse fibroblasts (Mus musculus, L929, 120 h, read-out: adapted IC50, inhibition of mouse fibroblast proliferation), 3.5 µg/mL (≈ 7.47 µM). Besides, the inhibition constant Ki on ecFoID (Ki (5,10-CH═THF), carolacton inhibition on CYH activity, ecFoID, vs 5,10-CH=THF) was 32 nM and 31.6 nM. In addition, in the test with L-929 mouse fibroblasts (L929 cells cultivated for 5 days), the “inhibition of growth of L929 cells reached” value is at most 50%. Besides, the “inhibition of planktonic growth” value with S. pneumoniae TIGR4Δfhs is given as “complete inhibition”.
